Test results as given in US20230233305A1, “METHOD OF AMELIORATING OR TREATING INFLAMMATORY IN AN ORAL CAVITY” (priority 2022, published 2023).

What was measured:
LC3B = assay: Immunohistochemistry of inflamed oral mucosal tissue with anti-LC3B; assay type: in vivo, domestic cats; settings: after 6-week treatment vs 0th week
Protocol: (§1) The procedure of immunohistochemistry is briefly described as following. All steps are performed on the Leica Bond Max automatic immunohistochemistry machine. The aforementioned inflamed oral mucosal tissues fixed with formalin and embedded in paraffin is sectioned with a thickness of 5 μm, and placed on a glass slide suitable for performing immunohistochemistry. The tissue section is placed in a 50° C. oven for 15 minutes and is dewaxed twice with Bond Dewax Solution for 5 minutes. The tissue section is washed three times with Tris buffered saline (TBS, pH 7.6) for 5 minutes, and then treated with Bond Leica Alcohol for 5 minutes for tissue rehydration. After being washed three times with TBS for 5 minutes, the tissue section is heated at 100° C. with Bond Citrate buffer (pH 6), and the tissue used for detecting VDR is heated for 20 minutes, and the tissue used for detecting LC3B is heated for 40 minutes. After being washed three times with TBS for 5 minutes, the tissue section is reacted with Bond Peroxide solution for 8 minutes. After being washed three times with TBS for 5 minutes, the tissue section is reacted with Bond Protein blocking solution for 10 minutes. After being washed three times with TBS for 5 minutes, the tissue section is reacted with the primary antibodies for 30 minutes at room temperature, wherein the dilution ratio of anti-VDR antibody (ab3508) is 500×, and the dilution ratio of anti-LC3B antibody (ab239416) is 50×. After being washed three times with TBS for 5 minutes, the tissue section is reacted with Bond Post primary solution containing rabbit anti-mouse IgG antibody for 10 minutes. After being washed three times with TBS for 5 minutes, the tissue section is reacted with Bond Post primary solution containing Poly-HPR IgG for 10 minutes. After being washed three times with TBS for 5 minutes, the tissue section is reacted twice with Bond DAB solution for 3 minutes for coloration. […] The staining intensity and frequency of oral mucosal epithelial cells in the tissues are evaluated by the method provided by Shackelford. […]

[1] = tested on: domestic cats with feline chronic gingivostomatitis (FCGS); assay: Stomatitis disease activity index (SDAI) after mucogingival replacement surgery; assay type: in vivo
From the text: The stomatitis disease activity index is to score the condition of the subject by the following three aspects respectively and then add three scores to get the index: (1) owner evaluation (total score 0-3): the quality of life including appetite, activity level, grooming behavior, and perceived comfort would be scored by the owner, with a scale of 0-3, 0 is the best, and 3 is the worst; (2) weight (total score 0-3): the change in weight compared to most recent visit, with a scale of 0-3, 0 is an increase of more than 0.5 kg, 1 is an increase of 0.25-0.5 kg, 2 is an increase of 0-0.25 kg, and 3 is weight loss; (3) inflammatory symptoms (total score 0-24): inflammation in 8 different areas of the oral cavity, including maxillary buccal mucosa, mandibular buccal mucosa, maxillary attached gingiva, mandibular attached gingiva, lateral to palatoglossal folds, molar salivary gland, oropharynx, and sublingual area, with scale of 0-3, 0 is none, 1 is mild, 2 is moderate, and 3 is severe.

VDR = assay: Immunohistochemistry of inflamed oral mucosal tissue with anti-VDR; assay type: in vivo, domestic cats; settings: after 6-week treatment vs 0th week
Protocol: as §1

[2] = 0th week, vitamin D 200 ng/kg oral + 5 mg/kg deoxytetracycline (control: deoxytetracycline only), 5 mg/kg
[3] = 6th week, vitamin D 200 ng/kg oral + 5 mg/kg deoxytetracycline (control: deoxytetracycline only), 5 mg/kg

Substance	LC3B in the inflamed oral mucosal tissue (IHC intensity and frequency) (LC3B)	stomatitis disease activity index (SDAI) score ([1]; 0th week, vitamin D 200 ng/kg oral + 5 mg/kg deoxytetracycline (control: deoxytetracycline only))	stomatitis disease activity index (SDAI) score ([1]; 2nd week, 5 mg/kg deoxytetracycline)	stomatitis disease activity index (SDAI) score ([1]; 6th week, vitamin D 200 ng/kg oral + 5 mg/kg deoxytetracycline (control: deoxytetracycline only))	VDR in the inflamed oral mucosal tissue (IHC intensity and frequency) (VDR)	stomatitis disease activity index (SDAI) score [1, 2]	stomatitis disease activity index (SDAI) score [1, 3]
deoxytetracycline [control group (A)]	basically maintains a constant value	11.44	9.19	11.22	decreases		
vitamin D [fat-soluble vitamin D]	increases				increases	13	11.5
vitamin D [water-soluble vitamin D]	increases				remains unchanged	17.67	13.92
